Bridge positions count the residues as written; N and C are the ends. Peptide text beside a SMILES is read from it.
Tests used:
human Kv1.3 (CHO) = molecular target: T1, human Kv1.3 (CHO) (Homo sapiens, UniProt P22001); assay: cell-based
T1 construct: expressed in transfected cells; host or cells: CHO

human Kv1.1 (HEK293) = molecular target: T2, human Kv1.1 (HEK293) (Homo sapiens, UniProt Q09470); assay: cell-based
T2 construct: expressed in transfected cells; host or cells: HEK293
T2 sequence (Q09470 whole entry): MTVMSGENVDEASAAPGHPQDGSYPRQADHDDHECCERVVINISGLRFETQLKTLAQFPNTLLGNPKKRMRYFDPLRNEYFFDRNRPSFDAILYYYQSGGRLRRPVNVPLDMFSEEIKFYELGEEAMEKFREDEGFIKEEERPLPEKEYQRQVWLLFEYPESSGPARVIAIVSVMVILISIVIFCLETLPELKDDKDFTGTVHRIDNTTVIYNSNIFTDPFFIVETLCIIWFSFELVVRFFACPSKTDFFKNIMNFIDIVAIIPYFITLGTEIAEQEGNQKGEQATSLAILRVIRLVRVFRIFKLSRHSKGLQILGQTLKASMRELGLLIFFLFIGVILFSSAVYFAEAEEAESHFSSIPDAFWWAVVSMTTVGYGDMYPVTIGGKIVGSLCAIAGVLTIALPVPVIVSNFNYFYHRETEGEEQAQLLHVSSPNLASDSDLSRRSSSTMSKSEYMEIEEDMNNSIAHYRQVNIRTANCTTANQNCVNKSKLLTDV

T1 sequence (P22001 whole entry): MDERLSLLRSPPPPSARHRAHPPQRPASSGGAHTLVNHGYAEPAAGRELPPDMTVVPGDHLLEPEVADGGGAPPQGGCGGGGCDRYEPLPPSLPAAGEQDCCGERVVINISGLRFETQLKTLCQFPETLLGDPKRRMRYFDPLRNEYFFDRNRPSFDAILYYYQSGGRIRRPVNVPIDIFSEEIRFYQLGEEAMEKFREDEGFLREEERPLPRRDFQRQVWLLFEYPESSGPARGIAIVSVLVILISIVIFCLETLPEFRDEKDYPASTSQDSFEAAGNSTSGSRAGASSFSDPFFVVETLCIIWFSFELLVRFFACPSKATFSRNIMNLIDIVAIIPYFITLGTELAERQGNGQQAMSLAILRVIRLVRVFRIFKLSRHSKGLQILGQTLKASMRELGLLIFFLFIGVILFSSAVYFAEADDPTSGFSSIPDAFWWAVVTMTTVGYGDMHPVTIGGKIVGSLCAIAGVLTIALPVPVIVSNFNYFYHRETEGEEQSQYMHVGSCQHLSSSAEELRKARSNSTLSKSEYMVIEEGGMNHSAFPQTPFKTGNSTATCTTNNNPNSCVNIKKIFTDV

Row | Structure (SMILES) | IC50 (human Kv1.3 (CHO)) [nM] | IC50 (human Kv1.1 (HEK293)) [nM]
1 | CC[C@H](C)[C@@H]1NC(=O)[C@H](CCCCN)NC(=O)[C@@H](NC(=O)[C@H](CCCCN)NC(=O)[C@@H](NC(=O)[C@H](CC(N)=O)NC(=O)[C@@H](NC(=O)[C@@H](NC(=O)[C@@H](NC(=O)CN)C(C)C)[C@@H](C)CC)[C@@H](C)CC)C(C)C)CSSC[C@@H]2NC(=O)[C@H](CCCCN)NC(=O)CNC(=O)[C@H](CCCNC(=N)N)NC(=O)[C@H](CCCNC(=N)N)NC(=O)[C@H](CCSC)NC(=O)CNC(=O)[C@H](C)NC(=O)[C@H](CCCCN)NC(=O)[C@H](CCCCN)NC(=O)[C@@H]3CSSC[C@@H](C(=O)N[C@H](C(=O)N4CCC[C@H]4C(=O)N[C@@H](CCCCN)C(=O)O)[C@@H](C)O)NC(=O)[C@H](Cc4c[nH]cn4)NC(=O)[C@H](CSSC[C@H](NC(=O)[C@H](CCC(N)=O)NC(=O)[C@H](CCCNC(=N)N)NC(=O)[C@H](CO)NC1=O)C(=O)N[C@@H](CC(C)C)C(=O)N[C@@H](CCC(=O)O)C(=O)N1CCC[C@H]1C(=O)N3)NC(=O)[C@H](CCCCN)NC(=O)CNC(=O)[C@H](CC(N)=O)NC(=O)[C@H](CCSC)NC2=O [F25R] (H-GVIINVKCKISRQCLEPCKKAGMRRGKCMNGKCHCTPK-OH; disulfide 8-28, 14-33, 18-35) | > 3.33 | 0.817
2 | CC[C@H](C)[C@@H]1NC(=O)[C@H](CCCCN)NC(=O)[C@@H](NC(=O)[C@H](CCCCN)NC(=O)[C@@H](NC(=O)[C@H](CC(N)=O)NC(=O)[C@@H](NC(=O)[C@@H](NC(=O)[C@@H](NC(=O)[C@H](C)N)C(C)C)[C@@H](C)CC)[C@@H](C)CC)C(C)C)CSSC[C@@H]2NC(=O)[C@H](CCCCN)NC(=O)CNC(=O)[C@H](Cc3ccccc3)NC(=O)[C@H](CCCNC(=N)N)NC(=O)[C@H](CCSC)NC(=O)CNC(=O)[C@H](C)NC(=O)[C@H](CCCCN)NC(=O)[C@H](CCCCN)NC(=O)[C@@H]3CSSC[C@@H](C(=O)N[C@H](C(=O)N4CCC[C@H]4C(=O)N[C@@H](CCCCN)C(=O)O)[C@@H](C)O)NC(=O)[C@H](Cc4c[nH]cn4)NC(=O)[C@H](CSSC[C@H](NC(=O)[C@H](CCC(N)=O)NC(=O)[C@H](CCCNC(=N)N)NC(=O)[C@H](CO)NC1=O)C(=O)N[C@@H](CC(C)C)C(=O)N[C@@H](CCC(=O)O)C(=O)N1CCC[C@H]1C(=O)N3)NC(=O)[C@H](CCCCN)NC(=O)CNC(=O)[C@H](CC(N)=O)NC(=O)[C@H](CCSC)NC2=O [G1A] (H-AVIINVKCKISRQCLEPCKKAGMRFGKCMNGKCHCTPK-OH; disulfide 8-28, 14-33, 18-35) | 0.0411 | 0.0139
3 | CC[C@H](C)[C@@H]1NC(=O)[C@H](CCCCN)NC(=O)[C@@H](NC(=O)[C@H](CCCCN)NC(=O)[C@@H](NC(=O)[C@H](CC(N)=O)NC(=O)[C@@H](NC(=O)[C@@H](NC(=O)[C@@H](NC(=O)[C@@H](N)CCC(=O)O)C(C)C)[C@@H](C)CC)[C@@H](C)CC)C(C)C)CSSC[C@@H]2NC(=O)[C@H](CCCCN)NC(=O)CNC(=O)[C@H](Cc3ccccc3)NC(=O)[C@H](CCCNC(=N)N)NC(=O)[C@H](CCSC)NC(=O)CNC(=O)[C@H](C)NC(=O)[C@H](CCCCN)NC(=O)[C@H](CCCCN)NC(=O)[C@@H]3CSSC[C@@H](C(=O)N[C@H](C(=O)N4CCC[C@H]4C(=O)N[C@@H](CCCCN)C(=O)O)[C@@H](C)O)NC(=O)[C@H](Cc4c[nH]cn4)NC(=O)[C@H](CSSC[C@H](NC(=O)[C@H](CCC(N)=O)NC(=O)[C@H](CCCNC(=N)N)NC(=O)[C@H](CO)NC1=O)C(=O)N[C@@H](CC(C)C)C(=O)N[C@@H](CCC(=O)O)C(=O)N1CCC[C@H]1C(=O)N3)NC(=O)[C@H](CCCCN)NC(=O)CNC(=O)[C@H](CC(N)=O)NC(=O)[C@H](CCSC)NC2=O [G1E] (H-EVIINVKCKISRQCLEPCKKAGMRFGKCMNGKCHCTPK-OH; disulfide 8-28, 14-33, 18-35) | 0.186 | 0.051
4 | CC[C@H](C)[C@@H]1NC(=O)[C@H](CCCCN)NC(=O)[C@@H](NC(=O)[C@H](CCCCN)NC(=O)[C@@H](NC(=O)[C@H](CC(N)=O)NC(=O)[C@@H](NC(=O)[C@@H](NC(=O)[C@@H](NC(=O)[C@@H](N)CCCNC(=N)N)C(C)C)[C@@H](C)CC)[C@@H](C)CC)C(C)C)CSSC[C@@H]2NC(=O)[C@H](CCCCN)NC(=O)CNC(=O)[C@H](Cc3ccccc3)NC(=O)[C@H](CCCNC(=N)N)NC(=O)[C@H](CCSC)NC(=O)CNC(=O)[C@H](C)NC(=O)[C@H](CCCCN)NC(=O)[C@H](CCCCN)NC(=O)[C@@H]3CSSC[C@@H](C(=O)N[C@H](C(=O)N4CCC[C@H]4C(=O)N[C@@H](CCCCN)C(=O)O)[C@@H](C)O)NC(=O)[C@H](Cc4c[nH]cn4)NC(=O)[C@H](CSSC[C@H](NC(=O)[C@H](CCC(N)=O)NC(=O)[C@H](CCCNC(=N)N)NC(=O)[C@H](CO)NC1=O)C(=O)N[C@@H](CC(C)C)C(=O)N[C@@H](CCC(=O)O)C(=O)N1CCC[C@H]1C(=O)N3)NC(=O)[C@H](CCCCN)NC(=O)CNC(=O)[C@H](CC(N)=O)NC(=O)[C@H](CCSC)NC2=O [G1R] (H-RVIINVKCKISRQCLEPCKKAGMRFGKCMNGKCHCTPK-OH; disulfide 8-28, 14-33, 18-35) | 0.0688 | 0.00991
5 | CC[C@H](C)[C@@H]1NC(=O)[C@H](CCCCN)NC(=O)[C@@H](NC(=O)[C@H](CCCCN)NC(=O)[C@@H](NC(=O)[C@H](CC(N)=O)NC(=O)[C@@H](NC(=O)[C@@H](NC(=O)[C@@H](NC(=O)CN)C(C)C)[C@@H](C)CC)[C@@H](C)CC)C(C)C)CSSC[C@@H]2NC(=O)[C@H](CCCCN)NC(=O)CNC(=O)[C@H](Cc3ccccc3)NC(=O)[C@H](CCCNC(=N)N)NC(=O)[C@H](CCSC)NC(=O)[C@H](C)NC(=O)[C@H](C)NC(=O)[C@H](CCCCN)NC(=O)[C@H](CCCCN)NC(=O)[C@@H]3CSSC[C@@H](C(=O)N[C@H](C(=O)N4CCC[C@H]4C(=O)N[C@@H](CCCCN)C(=O)O)[C@@H](C)O)NC(=O)[C@H](Cc4c[nH]cn4)NC(=O)[C@H](CSSC[C@H](NC(=O)[C@H](CCC(N)=O)NC(=O)[C@H](CCCNC(=N)N)NC(=O)[C@H](CO)NC1=O)C(=O)N[C@@H](CC(C)C)C(=O)N[C@@H](CCC(=O)O)C(=O)N1CCC[C@H]1C(=O)N3)NC(=O)[C@H](CCCCN)NC(=O)CNC(=O)[C@H](CC(N)=O)NC(=O)[C@H](CCSC)NC2=O [G22A] (H-GVIINVKCKISRQCLEPCKKAAMRFGKCMNGKCHCTPK-OH; disulfide 8-28, 14-33, 18-35) | > 3 | > 3
6 | CC[C@H](C)[C@@H]1NC(=O)[C@H](CCCCN)NC(=O)[C@@H](NC(=O)[C@H](CCCCN)NC(=O)[C@@H](NC(=O)[C@H](CC(N)=O)NC(=O)[C@@H](NC(=O)[C@@H](NC(=O)[C@@H](NC(=O)CN)C(C)C)[C@@H](C)CC)[C@@H](C)CC)C(C)C)CSSC[C@@H]2NC(=O)[C@H](CCCCN)NC(=O)CNC(=O)[C@H](Cc3ccccc3)NC(=O)[C@H](CCCNC(=N)N)NC(=O)[C@H](CCSC)NC(=O)[C@H](CCC(=O)O)NC(=O)[C@H](C)NC(=O)[C@H](CCCCN)NC(=O)[C@H](CCCCN)NC(=O)[C@@H]3CSSC[C@@H](C(=O)N[C@H](C(=O)N4CCC[C@H]4C(=O)N[C@@H](CCCCN)C(=O)O)[C@@H](C)O)NC(=O)[C@H](Cc4c[nH]cn4)NC(=O)[C@H](CSSC[C@H](NC(=O)[C@H](CCC(N)=O)NC(=O)[C@H](CCCNC(=N)N)NC(=O)[C@H](CO)NC1=O)C(=O)N[C@@H](CC(C)C)C(=O)N[C@@H](CCC(=O)O)C(=O)N1CCC[C@H]1C(=O)N3)NC(=O)[C@H](CCCCN)NC(=O)CNC(=O)[C@H](CC(N)=O)NC(=O)[C@H](CCSC)NC2=O [G22E] (H-GVIINVKCKISRQCLEPCKKAEMRFGKCMNGKCHCTPK-OH; disulfide 8-28, 14-33, 18-35) | 0.0139 | 0.00256
7 | CC[C@H](C)[C@@H]1NC(=O)[C@H](CCCCN)NC(=O)[C@@H](NC(=O)[C@H](CCCCN)NC(=O)[C@@H](NC(=O)[C@H](CC(N)=O)NC(=O)[C@@H](NC(=O)[C@@H](NC(=O)[C@@H](NC(=O)CN)C(C)C)[C@@H](C)CC)[C@@H](C)CC)C(C)C)CSSC[C@@H]2NC(=O)[C@H](CCCCN)NC(=O)CNC(=O)[C@H](Cc3ccccc3)NC(=O)[C@H](CCCNC(=N)N)NC(=O)[C@H](CCSC)NC(=O)[C@H](CCCNC(=N)N)NC(=O)[C@H](C)NC(=O)[C@H](CCCCN)NC(=O)[C@H](CCCCN)NC(=O)[C@@H]3CSSC[C@@H](C(=O)N[C@H](C(=O)N4CCC[C@H]4C(=O)N[C@@H](CCCCN)C(=O)O)[C@@H](C)O)NC(=O)[C@H](Cc4c[nH]cn4)NC(=O)[C@H](CSSC[C@H](NC(=O)[C@H](CCC(N)=O)NC(=O)[C@H](CCCNC(=N)N)NC(=O)[C@H](CO)NC1=O)C(=O)N[C@@H](CC(C)C)C(=O)N[C@@H](CCC(=O)O)C(=O)N1CCC[C@H]1C(=O)N3)NC(=O)[C@H](CCCCN)NC(=O)CNC(=O)[C@H](CC(N)=O)NC(=O)[C@H](CCSC)NC2=O [G22R] (H-GVIINVKCKISRQCLEPCKKARMRFGKCMNGKCHCTPK-OH; disulfide 8-28, 14-33, 18-35) | 0.0237 | 0.00349
8 | CC[C@H](C)[C@@H]1NC(=O)[C@H](CCCCN)NC(=O)[C@@H](NC(=O)[C@H](CCCCN)NC(=O)[C@@H](NC(=O)[C@H](CC(N)=O)NC(=O)[C@@H](NC(=O)[C@@H](NC(=O)[C@@H](NC(=O)CN)C(C)C)[C@@H](C)CC)[C@@H](C)CC)C(C)C)CSSC[C@@H]2NC(=O)[C@H](CCCCN)NC(=O)[C@H](C)NC(=O)[C@H](Cc3ccccc3)NC(=O)[C@H](CCCNC(=N)N)NC(=O)[C@H](CCSC)NC(=O)CNC(=O)[C@H](C)NC(=O)[C@H](CCCCN)NC(=O)[C@H](CCCCN)NC(=O)[C@@H]3CSSC[C@@H](C(=O)N[C@H](C(=O)N4CCC[C@H]4C(=O)N[C@@H](CCCCN)C(=O)O)[C@@H](C)O)NC(=O)[C@H](Cc4c[nH]cn4)NC(=O)[C@H](CSSC[C@H](NC(=O)[C@H](CCC(N)=O)NC(=O)[C@H](CCCNC(=N)N)NC(=O)[C@H](CO)NC1=O)C(=O)N[C@@H](CC(C)C)C(=O)N[C@@H](CCC(=O)O)C(=O)N1CCC[C@H]1C(=O)N3)NC(=O)[C@H](CCCCN)NC(=O)CNC(=O)[C@H](CC(N)=O)NC(=O)[C@H](CCSC)NC2=O [G26A] (H-GVIINVKCKISRQCLEPCKKAGMRFAKCMNGKCHCTPK-OH; disulfide 8-28, 14-33, 18-35) | 0.711 | 0.733
